The source of these data is US11370775B2, “Substituted benzimidazole derivatives as D-amino acid oxidase (DAAO) inhibitors” (NATIONAL TAIWAN UNIVERSITY, priority 2016, dated 2022).

pIC50: −log10 of the molar value.

Test [1] addresses T1, porcine kidney DAO (Sus scrofa, UniProt P00371).
T1 construct: purchased Sigma-Aldrich; host or cells: porcine kidney
Put plainly: pkDAO enzymatic assay (porcine kidney DAO IC50 assay). It counts as biochemical. The conditions noted are these: D-alanine substrate, pH 8.3, 37° C., without FAD. As for the experimental part: The DAAO enzymatic activity assay was modified according to the report of Oguri et al (Oguri, S., Screening of d-amino acid oxidase inhibitor by a new multi-assay method. Food chemistry 2007, 100 (2), 616). The DAAO activity was measured by using substrate D-alanine reaction produced hydrogen peroxide (H2O2) to further react with 3-(4-hydroxyphenyl) propionic acid (HPPA). The HPPA were oxidized by H2O2 and peroxidase to become the fluorogenic dimer which was measured to represent the activity of DAAO.
For porcine kidney DAO IC50 assay, the DAO substrate was prepared in 50 mM D-alanine (dissolved in 0.2 M Tris-HCl buffer, pH 8.3). A 100 μl of D-alanine solution was mixed with 4 μl (in 100% dimethyl sulfoxide, DMSO) of different concentrations of candidate compounds shown in tables below ranging from 48.83 μM, 97.66 μM, 195.31 μM, 390.63 μM, 781.25 μM, 1.56 mM, 3.13 mM, 6.25 mM, 12.50 mM, 25.00 mM, and 50.00 mM, with a final DMSO concentration of 0.167% in each reaction concentration. 10 μl of D-alanine and candidate compound mixture was incubated with 220 μl of Reaction Master Mix in black 96 well plate at 37° C. for 5 minutes. The Reaction Master Mix contained 110 μl of 5 U/mL porcine kidney DAO (Sigma-Aldrich, USA) solution (dissolved with 0.2 M Tris-HCl buffer, pH 8.3), 1.1 mL of 15 U/mL peroxidase solution (dissolved with 0.2 M Tris-HCl buffer, pH 8.3), 1.1 mL of 20 mM HPPA solution (dissolved with 0.2 M Tris-HCl buffer, pH 8.3), and 22 ml of 2 M Tris-HCl buffer (pH 8.3) for 110 reaction assays.
Fluorescence intensity (Fs) was measured at 405 nm by irradiation excitation at 320 nm. The higher the DAO enzymatic activity was, the higher the fluorescence intensity. The fluorometric inhibition indicator (Fi) was obtained from the following equation: Fi=(Fs-FDrug)/(FDMSO), where the fluorescent drug blank (FDrug) was measured in the drug mixture solution (using 0.2 M Tris HCl buffer, pH 8.3, without D-alanine). A DMSO blank (FDMSO) was measured under a 100% DMSO solution.
Although FAD is generally included in the reaction mixture in the D-amino acid oxidase assay since it easily dissociates from the holoenzyme, the present method was performed without FAD. The inhibitory effect of DAO inhibitors was compared by using inhibitory concentrations leading to 50% inhibition of DAAO activity (IC50). The IC50 values were calculated by nonlinear regression model using GraphPad Prism, version 5(GraphPad Software, Inc., La Jolla, Calif.).

Test [2] addresses T2, DAO in SK-N-SH neuroblastoma cells (Homo sapiens, UniProt P14920).
T2 construct: endogenous in cells; host or cells: SK-N-SH neuroblastoma cells (ATCC)
The experiment in a line: Cell-based DAO assay in SK-N-SH cells. The arrangement: key to Relative DAO activity normalize to DMSO at Final Conc. 100 uM / Relative DAO activity normalize to DMSO at Final Conc. 10 uM: fraction of DMSO-control DAO activity (1 = DMSO). The conditions noted are these: SK-N-SH 1.25*10^5 cells/well, drug treated for 3.5 hr; for pIC50: 50 mM D-serine. As for the experimental part: The SK-N-SH neuroblastoma cell line was purchased from American Type Culture Collection (ATCC). It was cultured in MEM media (Invitrogen/GIBCO, Rockville, Md.) supplemented with 10% fetal bovine serum, 1×NEAA (Invitrogen/GIBCO) at 37° C. with 5% CO2 in a humidified atmosphere. Cells were trypsinized and plated into a black 96-well plate (NUNC No. 237108) at a density of 125,000 cells/well in 50 μl before cell-based DAO assay.
The cellular DAO activity assay was using a method modified according to the report of Brandish et al. (Brandish, P. E., et al., A cell-based ultra-high-throughput screening assay for identifying inhibitors of D-amino acid oxidase. J Biomol Screen, 2006. 11(5): p. 481-7). SK-N-SH cells were suspended in assay buffers of HANKS buffer solution (Invitrogen/GIBCO No. 14025-092) with 20 mM HEPES. D-serine of (final concentration 50 mM) was added in each well as the substrate for DAO enzyme. The Amplex Red Hydrogen Peroxide/Proxidase Assay Kit (Molecular Probes/Invitrogen, cat. A22188) was used to measure H2O2 production which diffused across the cell membrane into the assay medium after DAO reaction. After seeding cells into black 96-well plate (Nunc No. 237108, Denmark), 50 μl of SK-N-SH cells (125,000 cells/well) was mixed with 50 μl drug solution (2.5 fold of interesting final concentration) and incubate at 37° C. with 5% CO2 in a humidified atmosphere for 30 minutes. After 30 minutes later, 25 μl of a 5 fold mixture containing D-serine, horseradish peroxidase (HRP), and Amplex Red was added into wells containing 100 μl of cell-drugs mixture and incubated at 37° C. with 5% CO2 in a humidified atmosphere for 3 hours. The final concentration of DMSO is below 1%. The fluorescence signal was then detected in SpectraMax M2e microplate reader (Molecular Devices, USA) with excitation at 544 nm and emission at 590 nm. The optimized assay buffer contained a final concentration of 50 mM D-serine, 0.625 units HRP, and 50 μM Amplex Red in a 125 μl assay volume.

T2 sequence (P14920 whole entry): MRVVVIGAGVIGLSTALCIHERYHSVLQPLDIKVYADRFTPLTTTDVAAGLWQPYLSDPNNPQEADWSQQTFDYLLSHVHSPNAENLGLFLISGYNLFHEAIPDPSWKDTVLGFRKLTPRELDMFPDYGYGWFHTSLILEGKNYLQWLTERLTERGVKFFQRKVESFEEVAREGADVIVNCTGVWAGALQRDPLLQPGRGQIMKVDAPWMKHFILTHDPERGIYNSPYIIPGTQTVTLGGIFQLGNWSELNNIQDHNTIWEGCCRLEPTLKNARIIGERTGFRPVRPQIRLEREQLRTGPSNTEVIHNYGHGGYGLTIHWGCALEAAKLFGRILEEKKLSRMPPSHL
T1 sequence (P00371 whole entry): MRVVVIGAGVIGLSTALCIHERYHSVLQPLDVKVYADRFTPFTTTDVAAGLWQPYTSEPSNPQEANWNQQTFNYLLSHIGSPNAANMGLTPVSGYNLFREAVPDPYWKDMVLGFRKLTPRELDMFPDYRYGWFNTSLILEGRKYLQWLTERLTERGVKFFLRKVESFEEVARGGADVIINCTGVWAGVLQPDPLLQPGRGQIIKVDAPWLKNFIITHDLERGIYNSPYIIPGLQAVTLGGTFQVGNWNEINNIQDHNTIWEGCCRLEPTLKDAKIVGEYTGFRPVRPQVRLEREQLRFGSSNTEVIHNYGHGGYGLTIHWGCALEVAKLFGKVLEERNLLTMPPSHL

As a reminder, the pIC50 is the IC50 on a negative log10 scale, so that one unit is a factor of ten. Take `COc1c(C)cnc(C[S+]([O-])c2nc3ccc(O)cc3[nH]2)c1C` (centres unmarked) [RS-D7, reference compound]: the negative logarithm of the IC50 (pIC50) in test [1] was 5.93. In addition, in test [2], the “Relative DAO activity normalize to DMSO at Final Conc. 10 uM” value came out at 1.05, the “Relative DAO activity normalize to DMSO at Final Conc. 100 uM” value was found to be 0.69 and the negative logarithm of the IC50 (pIC50) is 3.85.
The matching figures for `COc1c(C)cnc(CSc2nc3cc(C(=O)O)ccc3n2CCC2=CCCCC2)c1C` [compound 12083, 1-(2-(cyclohex-1-en-1-yl)ethyl)-2-(((4-methoxy-3,5-dimethylpyridin-2-yl)methyl)thio)-1H-benzo[d]imidazole-5-carboxylic acid]: 3.44, 0.62, 0.48 and 4.13.
